In data set [1] the test system is homer mRNA. The data set can be described thus: Homer gene expression in brain by in situ hybridization histochemistry. It is filed as in vivo, Sprague-Dawley rats. The conditions noted are these: for Homer gene expression induced by treatment with amphetamine: brain frontal cortex, amphetamine plus compound. The procedure:
Adult Sprague-Dawley rats (250 g) were maintained in normal environmental conditions with free access to food and water ab libitum. Animals were treated with haloperidol (0.5 and 5 mg/kg) or saline. Naive (non-treated) animals were used as additional controls. Animals were also treated with amphetamine or with amphetamine and MPEP or SIB-1893 as described in example 18b. The animals were sacrificed by decapitation 90 minutes after treatment. Whole brain was rapidly removed from the skull, frozen in dry ice and stored at -30°C. Rat brain sections (15 μm) were obtained at -20°C in a cryostat, mounted in gelatine-coated slides and stored at -30°C until used. Olygonucleotide sequences 40 base length were selected from the homer rat gene sequence published in the GENEBANK (accession number: U92079). Antisense oligonucleotide homerAT ([NT]) was complementary to bases 559 to 599. Antisense oligonucleotide homerBT ([NT]) was complementary to bases 894-934. The corresponding sense oligonucleotides (homerAS and homerBS) were used as control probes. Synthesis was performed in a 395 Applied Biosystems DNA Synthesizer. Purified oligonucleotides were dissolved in DEPC-treated water and stored at -30°C until use. Labelling of synthetic oligoprobes was performed using a deoxynucleotidyl-transferase (TdT) labelling kit (NEP-100, NEN, Bad-Homburg, Germany). Briefly, 5 pmol of probe were incubated (2 hr) with TdT (36 units) in presence of 50 pmol of (^35S] dATP (NEN) and Cl2Co. […] Labelling efficacy was checked by paper chromatography in phosphate buffer system. Homer gene expression in rat brain was studied using in situ hybridization techniques well known in the art. In situ hybridization was performed as previously described (Garcia-Ladona et al., 1994). Briefly, Tissue sections were fixed with paraformaldehyde in PBS and treated (min) with pronase (0.25 mg/l), rapidly washed, dehydrated by consecutive incubation with 60%, 80%, 90% and 100% ethanol, rapidly dried and used for hybridization. […]

The test system of data set [2] is methamphetamine-induced hyperactivity. The data set can be described thus: Methamphetamine antagonism (methamphetamine-induced hyperactivity, measurement of locomotor activity). The data set is classed as in vivo, Mice (NMRI). The conditions noted are these: drug ip 30 min prior to methamphetamine 1 mg/kg po; counts 15 to 60 min after start of measurement. The procedure:
Methamphetamine antagonism was tested by recording methamphetamine-induced hyperactivity (measurement of locomotor activity). Mice (NMRI, 21-26 g; female) received drug or vehicle, intraperitoneally, 30 min prior to methamphetamine (MET, 1 mg/kg po). Locomotor activity was recorded in cages equipped with light beams (2 mice/cage/dose) for 1 h, starting 30 min after MET. For calculation of drug effects the counts recorded during the time period of 15 to 60 min after start of the measurement were selected. The control value was calculated as the difference between the counts recorded for the methamphetamine group and the vehicle-treated group during the same time period.

Data set [3] concerns cataleptic syndrome. The data set can be described thus: Cataleptogenic effects (cataleptic syndrome, method of Wirth et al.). It is filed as in vivo, rats, Sprague-Dawley. The conditions noted are these: dose 100 mg/kg ip; cataleptic animals / animals per dose; tested 30 to 300 min after administration. The procedure:
The cataleptic syndrome was tested according to the method described by Wirth et al. (Arch. Int. Pharmacodyn. Ther. 115, 1-31, 1958). The animals (male rats, Sprague-Dawley bodyweight 210-225 g; n/dose=4) were regarded as cataleptic if they remained in an abnormal posture for more than 15 sec, i.e. one foreleg an a 9-cm-high piece of cork. The animals were tested 30m 60, 120, 180 and 300 min after intraperitoneal administration of the test compound.

With `Cc1cccc(C=Cc2ccccc2)n1` [BSF 470213, 2-methyl-6-(2-phenylethenyl)-pyridine], the “Homer gene expression induced by treatment with amphetamine” value in data set [1] is reported as “reduced”. In data set [2], the “Methamphetamine antagonism ED50” value is listed as 53.4 mg/kg ip. For the same molecule, the “Cataleptogenic effect [x/n] at dose [mg/kg ip]” value in data set [3] is 0/4 at dose 100.

For `Cc1cccc(C#Cc2ccccc2)n1.Cl` [BSF 470214, 2-methyl-8-(phenylethynyl)-pyridine hydrochloride], in data set [1], the “Homer gene expression induced by treatment with amphetamine” value is “reduced”. Moreover, the “Methamphetamine antagonism ED50” value in data set [2] amounted to 51.2 mg/kg ip. For the same molecule, the “Cataleptogenic effect [x/n] at dose [mg/kg ip]” value in data set [3] is given as 0/4 at dose 100.

In the case of `O=C(CCCN1CCC(O)(c2ccc(Cl)cc2)CC1)c1ccc(F)cc1` [haloperidol], the “homer mRNA transcripts (in situ hybridization images)” value in data set [1] (haloperidol 0.5 and 5 mg/kg vs controls, rat brain, 90 minutes after treatment) was “higher levels in haloperidol treated animals than in controls”.

(Values after EP1900360A1, “Homer a new target of treating psychiatric disorders” (Abbott GmbH & Co. KG, priority 1998, dated 2000).)
